Measured values taken from ChEMBL document CHEMBL3507680, “University of Dundee, Gates Library screen for HepG2 cell viability”.

assay: Human HepG2 cell viability assay in 384 well format; type: toxicity, cell-based; parameters: dose 125 nL, time 70.5 hour; cytotoxicity at 70.5 h: concentration not given beside the values; conditions: HepG2 cells, read-out: Inhibition

Row | SMILES | cytotoxicity at 70.5 h [%]
1 | O=C(NC1CC1)C1CNCCN1C(=O)CCOc1ccccc1 (stereo not given) | -0.757
2 | CC(C)c1cc(=O)[nH]c(-c2ccccc2CN2CCCC2C)n1 (stereo not given) | -19.9
3 | Cn1cccc1C(=O)N1C[C@H]2CN(CCN3CCCC3)C(=O)[C@H]2C1 | -8.62
4 | O=C(c1ccnnc1)N1CCc2ncnc(C3CCOC3)c2CC1 (stereo not given) | -9.59
5 | Cc1ccc(Sc2nccn(C)c2=O)cc1 | -3.35
6 | O=C1OCCN1CC(=O)N1C[C@H]2CC[C@@H]1CN(Cc1cscn1)C2 | 27.8
7 | CCS(=O)(=O)N1Cc2[nH]nc(COCc3cccnc3)c2C1 | -2.23
8 | Cc1ccc(CNCCOc2ccc(S(C)(=O)=O)cc2)cc1 | 11
9 | O=C(NCCCOCC1CCCO1)c1cccnc1N1CCOCC1 (stereo not given) | 36.7
10 | CCC(C(=O)N(C)CCC1=CCN(C)CC1)c1ccccc1 (stereo not given) | 57.9
11 | COCC1c2nnn(CC3CC3)c2CCN1Cc1ccncc1 (stereo not given) | -8.11
12 | Cc1cnn(CCNCc2ccc(OCc3ccccn3)cc2)c1 | 2.45
13 | Cc1noc([C@@]23CCO[C@@H]2CCN(Cc2scnc2C)C3)n1 | -13.1
14 | N#Cc1c(Cl)nsc1N1CCN(CC2CC2)CC1 | 2.5
15 | CN(CC(=O)Nc1cc(CC2CCCCC2)n[nH]1)S(C)(=O)=O | -4.16
16 | O=C(NCC1CCC2(CC1)OCCO2)c1ccncc1F | -3.09
17 | CC(Oc1ccc2c(c1)OCO2)C(=O)N1CCC(N2CCCC2)CC1 (stereo not given) | -4.56
18 | O=C1CN(c2ccc(CNC(=O)Nc3nnc(C4CC4)s3)cc2)CCN1 | 21.5
19 | O=C(C1CC=CC1)N1CC[C@@H]2O[C@H](COCC3CCOCC3)CC[C@@H]21 | -6.77
20 | Cc1nc(C)n(CC2CN(Cc3cccc(OC(C)C)c3)CCO2)n1 (stereo not given) | -10.6
21 | CCc1nc(CC(=O)N2CCn3c(C)nnc3C2)cs1 | -6.05
22 | Cc1cnn(CC2CCCN2C(=O)Cc2cccs2)c1 (stereo not given) | -8.39
23 | Cc1ccc(C(=O)N(C)Cc2cc(Br)cs2)cn1 | -8.7

Row | SMILES | cytotoxicity at 70.5 h [%]
24 | CCCS(=O)(=O)N1CCOC2(COCCN(C(C)=O)C2)C1 (stereo not given) | -8.79
25 | O=C(NCc1ccccc1)NCC(O)c1cccc(F)c1 (stereo not given) | -6.42
26 | CCOc1ccnc(N2CCCN(C(=O)c3cc[nH]c3C)CC2)n1 | 17.6
27 | O=C(c1ccccn1)N1C[C@@H]2CC[C@H](C1)N(C(=O)CCc1ccsc1)C2 | -10.8
28 | O=C(NCC1CCSCC1)N(CCCO)C1CCc2ccccc21 (stereo not given) | 24.2
29 | O=C(c1cnns1)N1CCN(c2ccc(F)cc2Cl)CC1 | 4.28
30 | CC(CS(C)(=O)=O)NC(=O)N1CC2(CCCC2)c2ccccc21 (stereo not given) | -2.3
31 | Cn1ccnc1CN1CCCC(Cc2ccnc3ccncc23)CC1 (stereo not given) | -5.22
32 | CN1CC(=O)N(c2cccnc2)CC12CCN(C(=O)c1cccnc1)C2 (stereo not given) | 2.34
33 | COCCN1CCN(CCCS(=O)(=O)N(C)C)CC1C (stereo not given) | -2.19
34 | Cc1cccc(C(Nc2nccc(C)n2)C2CC2)n1 (stereo not given) | -4.46
35 | N[C@@H]1c2ccccc2C2(CCN(c3ccc(C(F)(F)F)cn3)CC2)[C@H]1O | -15.9
36 | CCN(Cc1ccoc1)Cc1nc(COC)no1 | -7.42
37 | CCS(=O)(=O)N1CCCC2(COCCN(c3nncs3)C2)C1 (stereo not given) | -2.49
38 | CC(C)(C)C(=O)NCCCn1cncn1 | 6.35
39 | O=C(Nc1cccnc1)NC1(c2cccc(F)c2)CC1 | -14.7
40 | CCCN(Cc1ccc(C#N)cc1)Cc1nnsc1Cl | 26.4
41 | CCCn1ccnc1SCCNS(=O)(=O)c1ccccc1 | -1.16
42 | O=C1CC(c2ccccc2)c2snc(C(=O)O)c2N1 (stereo not given) | 24.7
43 | CCC(CNC(=O)c1c(C)nn(C)c1OC)Oc1ccccc1 (stereo not given) | -7.65
44 | CC(C)=CCN1CCN(C(=O)C2CC2)CC1 | 2.37
45 | CNC(=O)c1cn[nH]c1C1(C)CCCN(Cc2nccn2C(C)C)C1 (stereo not given) | -2.7
46 | c1cc(CN2CCC(c3nnc4n3CCCCC4)CC2)c2nonc2c1 | 12.2

Row | SMILES | cytotoxicity at 70.5 h [%]
47 | CN1CCN(C(=O)NCCc2ccc(F)cc2)[C@H]2CS(=O)(=O)C[C@H]21 | -2.69
48 | CC(NC(=O)NCCOc1ccc(Cl)cc1)c1nncn1C (stereo not given) | -12.4
49 | Cc1ccn2cc(C(=O)N3CCCC(Cn4cc(CO)nn4)C3)nc2c1 (stereo not given) | 17.5
50 | OCc1cc(C2CCCN2c2ncccn2)n[nH]1 (stereo not given) | 0.468
51 | COc1cccc(-c2cc(C(=O)NCCn3nc(C)nc3C)[nH]n2)c1 | -7.22
52 | CN(CCN1CCOCC1)S(=O)(=O)CC1CCCC1 | -0.906
53 | Cc1cc(C[S+]([O-])CC(=O)NCC(C)C)no1 (stereo not given) | -1.65
54 | Fc1cccc(CN2CCN(Cc3cscn3)CC2)c1 | -4.73
55 | C[C@@H]1CN(Cc2ccoc2)C[C@]12CCN(CC(=O)N(C)C)C2=O | -12
56 | CCOCC(=O)N1CCC2(CC1)COCCN2CCN(C)C | -9.1
57 | CN1Cc2ccccc2NC(=O)C12CCNC2 (stereo not given) | -2.63
58 | Cn1cc(CN2CC[C@@H](NS(C)(=O)=O)[C@@H]2Cc2cccnc2)cn1 | -12.3
59 | COc1ccc(CN2CC[C@H]3[C@H]2CCN3C(=O)c2cnn(C)c2)cc1 | -0.0414
60 | CC(C)Cc1nc(CN(C)c2cc(C(C)C)nc3ccnn23)no1 | -10.6
61 | NC(=O)COc1ccc(CNCc2c(F)cccc2F)cc1 | -3.08
62 | Cc1nccn1CC1CCN(C(=O)Cc2ccccc2)CC1 | 24.1
63 | Cc1nc(NCCc2ccccc2)cc(C(=O)N2CCOCC2)n1 | 5.2
64 | COc1cc(CNC(=O)Nc2nnc(C3CC3)s2)ccc1O | -8.51
65 | COc1ccccc1CC(NC(=O)N1CCC[C@@H]1CO)C(C)C (stereo not given in full) | -6.32
66 | N#CCSCCCN1CCCN(C(=O)c2ccccc2)CC1 | -8.59
67 | Cc1cc(CNC(=O)C2CC(=O)N(CCN(C)C)C2)cc(C)n1 (stereo not given) | 27.5
68 | N#Cc1ccc(CN2CCC(c3ccnn3CCO)CC2)cc1 | -2.2
69 | Cc1cc(C2CCCN2Cc2cc(-c3ccco3)on2)on1 (stereo not given) | -14.5

Row | SMILES | cytotoxicity at 70.5 h [%]
70 | CCC(C)Sc1nncn1-c1ccc(OC)nc1 (stereo not given) | 5.95
71 | COc1ccc2c(c1)OCC(Cc1ccc(N)cn1)C2 (stereo not given) | 2.07
72 | Cc1ccc(CN(CC(=O)NC2CCOCC2)c2ccc(F)cc2)o1 | 1.79
73 | CCn1cc(C(=O)N2CCCN(c3cccnn3)CC2)c2ccccc21 | 14.2
74 | CCn1nc(C)c(CCNC(=O)C2CCCN(C(N)=O)C2)c1C (stereo not given) | 19.9
75 | CCc1nccn1C1CCCN(C(=O)c2cccc3c2OCO3)C1 (stereo not given) | -16
76 | O=C(Cn1nc(-c2ccc(F)cc2)oc1=O)NCc1ccccc1F | -5.95
77 | CC(C)(C)C(=O)N1C[C@@H](F)[C@@H](OCc2nc3ncccc3[nH]2)C1 | -2.41
78 | CCN1CCN(S(=O)(=O)c2cc(C)c(C)cc2Br)CC1 | -6.61
79 | O=C(c1ncccn1)N1C[C@H]2CCC[C@@]2(COc2ccccn2)C1 | -6.17
80 | COC(=O)c1ccc(C(=O)NCc2nn(C)c3c2COCC3)cc1 | -4.89
81 | CCS(=O)(=O)c1ccc2oc([C@H]3CCN(Cc4cccnc4)C3)nc2c1 | 9.25
82 | Cc1nn(C)c(C)c1C1CCCN1C(=O)c1ccc(Cl)o1 (stereo not given) | 3.22
83 | CC(C)c1cc(NC(=O)CNC2CCCN(c3cccnn3)C2)on1 (stereo not given) | 3.11
84 | Cc1noc(C)c1CN1CCc2ncnc(-c3ccc(F)cc3)c2CC1 | 2.47
85 | CC(c1ccco1)N(C)Cc1cc2cc3c(cc2[nH]c1=O)OCO3 (stereo not given) | -8.06
86 | NC(=O)NCC1CCCCN1C(=O)c1cccc(Cl)c1 (stereo not given) | -4.19
87 | CC(=O)N(Cc1ncc(C)o1)C1CCN(CCc2cnn(C)c2)C1 (stereo not given) | -11.2
88 | CC(=O)N1CC[C@H]2[C@H](C[C@@H](Cn3cncn3)N2c2nccs2)C1 | -8.31
89 | CNC(=O)CN1CCC(NC(=O)N(C)Cc2c(C)noc2C)CC1 | 26.1
90 | CSCc1noc(Cn2ncn3cccc3c2=O)n1 | -3.25
91 | CCn1cc2c(n1)C(COC)CN(C(=O)COc1ccccc1)C2 (stereo not given) | 6.15
92 | CCOC(=O)Cc1csc(NC(=O)c2cc3n(n2)CCCO3)n1 | -2.3

Row | SMILES | cytotoxicity at 70.5 h [%]
93 | Fc1ccccc1CN1CCC(c2n[nH]c(C3CC3)n2)CC1 | -5.65
94 | O=C(NCc1ccc2c(c1)OCO2)[C@@H]1C=CCN1c1ncccn1 | -1.63
95 | Cc1nc(COC[C@@H]2CCC[C@@]23CN(C)CCO3)cs1 | 4.91
96 | N#Cc1cccc(CNc2cc(CO)ccc2Cl)c1 | -15.1
97 | Cc1nc2[nH]cnc(NCCN3CCOCC3)c-2n1 | -1.72
98 | Cc1ccsc1CN(C)C(=O)C1CCCN(C(N)=O)C1 (stereo not given) | -8.56
99 | Cc1noc(C)c1CN1C[C@@H]2CCCO[C@@H]2[C@H](NS(C)(=O)=O)C1 | -9.8
100 | Cc1nc(-c2ccsc2)ccc1C(=O)NCCN1CCN(C)CC1 | 0.295
101 | CNC(=O)CNC(=O)Nc1ccc(Br)c(F)c1 | -4.08
102 | CN1CCN(Cc2ccccc2Oc2ccc(C(N)=O)cn2)CC1 | -6.47
103 | Cc1ccc(CN2C[C@@H]3CCCO[C@@H]3[C@H](NS(C)(=O)=O)C2)o1 | -9.45
104 | O=C(NC[C@H]1OC[C@@H](NC2CCC(F)(F)CC2)[C@@H]1O)Nc1ccccc1 | 0.362
105 | Cc1noc(-c2ccnc(Oc3cccc(CN4CCCC4)c3F)c2)n1 | -14.1
106 | O=S(=O)(c1ccccc1Cl)N1CCCC(c2ncc[nH]2)C1 (stereo not given) | -3.85
107 | CCN1CCC(NC(=O)CN2CCCC2Cn2nc(C)nc2C)CC1 (stereo not given) | 3.87
108 | CC(=O)N1CCN(C2CCCCc3ccccc32)CC1 (stereo not given) | -1.72
109 | Cc1nnc(CNC(C)c2cc(C)c(F)c(C)c2)s1 (stereo not given) | -5.2
110 | CCCN(CC)c1cc(C2CCNCC2)nc(C)n1 | 26.5
111 | CCc1noc(C(C)N2CCC(N3CCCC3)CC2)n1 (stereo not given) | 24.3
112 | Cc1n[nH]c(C)c1C1COCCN1C(=O)c1ccc(Cl)o1 (stereo not given) | 18
113 | Cn1cnc(S(=O)(=O)NCCCN2CCCCCC2=O)c1Cl | 0.779
114 | Cc1cc(F)ccc1CN1CCC(O)(CN2CCCCC2)C1 (stereo not given) | -1.38
115 | COc1ccc2c(c1)C(C(=O)N(C)CCc1scnc1C)CC(=O)N2 (stereo not given) | -5.27
